In general, pKi refers to the negative decadic logarithm of the Ki, by convention in mol/L. Low readings indicate a large Ki, high ones a small Ki.

pKi: −log10 of the molar value.

This test deals with T1, Muscarinic acetylcholine receptor M5 (Homo sapiens, UniProt P08912).
T1 sequence (P08912 whole entry): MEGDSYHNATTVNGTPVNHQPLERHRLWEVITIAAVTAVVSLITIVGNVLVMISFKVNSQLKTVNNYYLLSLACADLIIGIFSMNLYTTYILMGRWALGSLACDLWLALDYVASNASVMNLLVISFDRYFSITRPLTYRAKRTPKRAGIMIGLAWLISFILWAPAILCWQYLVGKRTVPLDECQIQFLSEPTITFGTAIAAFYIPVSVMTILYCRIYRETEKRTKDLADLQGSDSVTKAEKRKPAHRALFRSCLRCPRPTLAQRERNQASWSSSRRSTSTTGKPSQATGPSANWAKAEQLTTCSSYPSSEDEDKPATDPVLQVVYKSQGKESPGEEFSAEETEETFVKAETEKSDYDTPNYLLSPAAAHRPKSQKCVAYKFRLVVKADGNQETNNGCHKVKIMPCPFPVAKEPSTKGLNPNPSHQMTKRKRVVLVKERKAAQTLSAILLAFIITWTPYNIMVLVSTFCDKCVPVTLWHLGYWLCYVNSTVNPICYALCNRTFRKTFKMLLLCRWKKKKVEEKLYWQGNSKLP
Kind of test: binding competition at muscarinic M5 – biochemical, [3H]N-methylscopolamine (AID 2192). Particulars: inactive by the depositor's call.

In turn, `COc1ccc(CN2C(=O)C(=O)c3cc(OC(F)(F)F)ccc32)cc1` [VU0238429] had a pKi of 5.94.

The record behind these values is BindingDB's records for doi:10.7270/Q2N8786X (Vanderbilt Screening Center For Gpcrs, Ion Channels and …, 2009).
